Tests used:
Type in all cases: cell-based, human
ABCA1 transcription = assay: ABCA1 mRNA expression by realtime RT-PCR in LNCaP cells; settings: 10 μM T0901317 24 hours, 5 μM 5-aza-2′-deoxycytidine 7 days, or combination, vs mock treated
Procedure: PrEC (Lonza, Walkersville, Md.) was cultured in PrEGM according to the manufacturer's instructions. LNCaP and DU 145 (ATCC, Manassas, Va.) were cultured in RPMI 1640 supplemented with 10% FBS. All three cell lines were obtained directly from the cell banks, and the identities of the cell lines were verified per the cell banks' protocols. […] Louis, Mo.) for 24 hours or 5 μM 5-aza-2′-deoxycytidine (Sigma, St. Louis, Mo.) for 7 days, or a combination of the two compounds. ABCA1 promoter (−1132 to +112 relative to the transcription start site) was amplified by PCR and subcloned into the pGL4.20 (Promega, Madison, Wis.). Methylated ABCA1 promoter was in vitro DNA methylated using SssI (NEB, Ipswich, Mass.) and ligated into pGL4.20 prior to transfection. The reporter construct was co-transfected with pGL 4.74 vector into DU 145 cells using Nucleofection (Lonza, Walkersville, Md.). Reporter luciferase activity was measured and normalized to control Renilla luciferase activity for each sample. The mean±SEM from triplicate experiments for each experimental group was plotted for comparisons. […] Expression of ABCA1 and GAPDH mRNA was measured by realtime RT-PCR as previously described (Yan et al.). The relative fold change in expression was calculated using the 2^−ΔΔCT method by normalizing to GAPDH mRNA expression in each sample and compared to LNCaP mock treated cells. […]

LNCaP cells [1] = assay: Total cellular cholesterol content in LNCaP cells; settings: single agent
Procedure: (§1) PrEC (Lonza, Walkersville, Md.) was cultured in PrEGM according to the manufacturer's instructions. LNCaP and DU 145 (ATCC, Manassas, Va.) were cultured in RPMI 1640 supplemented with 10% FBS. All three cell lines were obtained directly from the cell banks, and the identities of the cell lines were verified per the cell banks' protocols. Cells were treated with 10 μM T0901317 (Sigma, St. Louis, Mo.) for 24 hours or 5 μM 5-aza-2′-deoxycytidine (Sigma, St. Louis, Mo.) for 7 days, or a combination of the two compounds. ABCA1 promoter (−1132 to +112 relative to the transcription start site) was amplified by PCR and subcloned into the pGL4.20 (Promega, Madison, Wis.). Methylated ABCA1 promoter was in vitro DNA methylated using SssI (NEB, Ipswich, Mass.) and ligated into pGL4.20 prior to transfection. […] Reporter luciferase activity was measured and normalized to control Renilla luciferase activity for each sample. […] Biochemical quantification of intracellular cholesterol was performed as previously described. […] At the end of this chase period, the radioactivity in the medium and cells was determined by liquid scintillation counting, and the percent efflux was calculated as 100×(medium dpm)/(medium dpm+cell dpm). Percent efflux to acceptors was calculated as (percent efflux to acceptor)-(percent efflux to no acceptor). […]

ABCA1 promoter [2] = assay: Methylation-specific PCR (MSP) of the ABCA1 promoter in LNCaP cells; settings: 5 μM for 7 days
Procedure: Bisulfite sequencing and methylation-specific PCR (MSP) of the ABCA1 promoter was performed as previously described (Yan et al., PLoS ONE. 2011; 6(6):e20628 (2011). See Table 1 for a list of the primers used.

LNCaP cells [3] = assay: Cellular [3H]-cholesterol efflux to acceptors in LNCaP cells; settings: for cholesterol efflux to APOA1: acceptor 10 μg/mL APOA1, 4 hours chase; for cholesterol efflux to HDL: acceptor 100 μg/mL HDL, 4 hours chase
Procedure: PrEC (Lonza, Walkersville, Md.) was cultured in PrEGM according to the manufacturer's instructions. LNCaP and DU 145 (ATCC, Manassas, Va.) were cultured in RPMI 1640 supplemented with 10% FBS. All three cell lines were obtained directly from the cell banks, and the identities of the cell lines were verified per the cell banks' protocols. Cells were treated with 10 μM T0901317 (Sigma, St. Louis, Mo.) for 24 hours or 5 μM 5-aza-2′-deoxycytidine (Sigma, St. Louis, Mo.) for 7 days, or a combination of the two compounds. ABCA1 promoter (−1132 to +112 relative to the transcription start site) was amplified by PCR and subcloned into the pGL4.20 (Promega, Madison, Wis.). Methylated ABCA1 promoter was in vitro DNA methylated using SssI (NEB, Ipswich, Mass.) and ligated into pGL4.20 prior to transfection. The reporter construct was co-transfected with pGL 4.74 vector into DU 145 cells using Nucleofection (Lonza, Walkersville, Md.). Reporter luciferase activity was measured and normalized to control Renilla luciferase activity for each sample. The mean±SEM from triplicate experiments for each experimental group was plotted for comparisons. The different groups were compared using one way ANOVA with Bonferroni's multiple comparison test. For filipin staining, LNCaP and DU 145 cells were grown on glass coverslips, fixed in 3% paraformaldehyde, and stained with 50 μg/mL filipin (Sigma, St. Louis, Mo.). Images were acquired using QCapturePro software (Qlmaging, Surrey, Canada) at the designated magnifications and fixed aperture and exposure time for both cell lines. Biochemical quantification of intracellular cholesterol was performed as previously described. Robinet et al., J Lipid Res. 51(11):3364-9 (2010). The different groups were compared using one way ANOVA with Bonferroni correction. For analysis of cholesterol efflux, cells were labeled with 0.5 μCi/mL [^3H]-cholesterol in RPMI containing 1% FBS for 16 hours at 37° C. After labeling, cells were chased for 4 hours at 37° C. in RPMI with or without acceptors (10 μg/mL APOA1 or 100 μg/mL HDL). At the end of this chase period, the radioactivity in the medium and cells was determined by liquid scintillation counting, and the percent efflux was calculated as 100×(medium dpm)/(medium dpm+cell dpm). Percent efflux to acceptors was calculated as (percent efflux to acceptor)-(percent efflux to no acceptor). LNCaP treatment groups were compared to the mock treated sample using one way ANOVA with Dunnett's correction. Unpaired t test with Welch's correction was used to compare the T0901317-treated with the mock treated DU 145 cells.

ABCA1 promoter [4] = assay: ABCA1 promoter/luciferase reporter assay in DU 145 cells; settings: 10 μM, 24 hours
Procedure: PrEC (Lonza, Walkersville, Md.) was cultured in PrEGM according to the manufacturer's instructions. LNCaP and DU 145 (ATCC, Manassas, Va.) were cultured in RPMI 1640 supplemented with 10% FBS. All three cell lines were obtained directly from the cell banks, and the identities of the cell lines were verified per the cell banks' protocols. Cells were treated with 10 μM T0901317 (Sigma, St. Louis, Mo.) for 24 hours or 5 μM 5-aza-2′-deoxycytidine (Sigma, St. Louis, Mo.) for 7 days, or a combination of the two compounds. ABCA1 promoter (−1132 to +112 relative to the transcription start site) was amplified by PCR and subcloned into the pGL4.20 (Promega, Madison, Wis.). Methylated ABCA1 promoter was in vitro DNA methylated using SssI (NEB, Ipswich, Mass.) and ligated into pGL4.20 prior to transfection. The reporter construct was co-transfected with pGL 4.74 vector into DU 145 cells using Nucleofection (Lonza, Walkersville, Md.). Reporter luciferase activity was measured and normalized to control Renilla luciferase activity for each sample. The mean±SEM from triplicate experiments for each experimental group was plotted for comparisons. The different groups were compared using one way ANOVA with Bonferroni's multiple comparison test.

DU 145 cells [5] = assay: Cellular [3H]-cholesterol efflux to acceptors in DU 145 cells
Procedure: as §1

DU 145 cells [6] = assay: Total cellular cholesterol content in DU 145 cells; settings: 10 μM T0901317
Procedure: as §1

Nc1ncn([C@H]2C[C@H](O)[C@@H](CO)O2)c(=O)n1 [5-aza-2′-deoxycytidine]
ABCA1 transcription (mRNA expression) (ABCA1 transcription): did not strongly induce ABCA1 transcription | intracellular cholesterol (change vs untreated) (LNCaP cells [1]): did not decrease significantly | demethylation of ABCA1 promoter (ABCA1 promoter [2]): confirmed demethylation of ABCA1 promoter | cholesterol efflux to APOA1 (LNCaP cells [3]): did not result in robust increases in cholesterol efflux | cholesterol efflux to HDL (LNCaP cells [3]): same overall trend

O=S(=O)(c1ccccc1)N(CC(F)(F)F)c1ccc(C(O)(C(F)(F)F)C(F)(F)F)cc1 [T0901317]
luciferase reporter activity from methylated ABCA1 promoter (ABCA1 promoter [4]; SssI methylated promoter): not induced | luciferase reporter expression from unmethylated ABCA1 promoter (ABCA1 promoter [4]; unmethylated promoter): significant induction of reporter expression | ABCA1 transcription (mRNA expression) (ABCA1 transcription): only modestly induced above baseline | cholesterol efflux to APOA1 (DU 145 cells [5]; acceptor 10 μg/mL APOA1, 10 μM T0901317): significant increase in cholesterol efflux to APOA1 | cholesterol efflux to HDL (DU 145 cells [5]; acceptor 100 μg/mL HDL, 10 μM T0901317): small, but statistically significant increase in cholesterol efflux to HDL | intracellular cholesterol (change vs untreated) (LNCaP cells [1]): did not decrease significantly | cholesterol efflux to APOA1 (LNCaP cells [3]): did not result in robust increases in cholesterol efflux | cholesterol efflux to HDL (LNCaP cells [3]): same overall trend | intracellular cholesterol (change vs mock) (DU 145 cells [6]): decreased intracellular cholesterol

From patent US11041212B2, “ABCA1 downregulation in prostate cancer” (THE CLEVELAND CLINIC FOUNDATION, priority 2013, dated 2021)
